For data set [1], the target named is T1, PPARγ (Homo sapiens, UniProt P37231).
T1 sequence (P37231 238-505 limits assumed): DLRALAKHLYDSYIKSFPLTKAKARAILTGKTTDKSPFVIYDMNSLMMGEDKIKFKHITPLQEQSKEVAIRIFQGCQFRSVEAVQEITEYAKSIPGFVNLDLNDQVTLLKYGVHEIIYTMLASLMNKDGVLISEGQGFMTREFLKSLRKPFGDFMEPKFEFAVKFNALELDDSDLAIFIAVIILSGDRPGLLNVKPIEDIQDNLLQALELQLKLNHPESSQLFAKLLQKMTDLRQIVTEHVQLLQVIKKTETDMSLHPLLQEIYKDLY
The data set can be described thus: Cotransfection (CTF) / response element assays, PPARγ in CV-1 cells. Conditions: CV-1; range over CTF assays of Tables 1 and 3; read-out: PPARγ efficacy (% efficacy compared to a PPARγ full agonist set at 100%). The format is cell-based. More on the design: rows headed: PPARγ efficacy (% efficacy compared to a PPARγ full agonist set at 100%); PPARγ or PPARα are constitutively expressed using plasmids containing the cytomegalovirus promoter. The text has this: PPARγ or PPARα are constitutively expressed using plasmids containing the cytomegalovirus promoter. Reporter plasmids for the PPARγ CTF assays contain PPREs from the following genes: acyl coA oxidase (AOX); apolipoprotein A1 (ApoA1); lipoprotein lipase (LPL); or enoyl-CoA hydratase/3-hydroxyacyl-CoA dehydrogenase (HD) plus the thymidine kinase (TK) promoter upstream of the luciferase reporter cDNA. A PPARγ […] galactosidase (GAL4) chimeric system is also used. For PPARα, a GAL4 chimeric system is the standard CTF assay performed. All assays are done in CV-1 cells. Compounds are tested in full log dilution, from 0.1 nM to 10 μM in duplicate. Percent efficacies are determined relative to reference molecules with the efficacy value reflecting the greatest amount of agonist activity achieved in the CTF assay for each compound. Median effective concentration (EC50) values are determined by computer fit to a concentration-response curve. An EC50 value is not calculated if the efficacy for the compound is <20%. Reported values represent means from two to nine separate experiments.

Structures are written as SMILES.

Consider 2 compounds from patent US7321056B2, “Selective peroxisome proliferator activated receptor modulators” (Eli Lilly and Company, priority 2003, dated 2008).

By melting point is commonly meant the temperature, or range, at which the solid turns liquid.

For the compound `COc1ccc(CCNC(=O)COc2ccc(C[C@H](OC)C(=O)O)cc2)cc1` [formula III, (2S)-3-(4-{[2-(4-methoxy-phenyl)-ethylcarbamoyl]-methoxy}-phenyl)-2-methoxy-propionic acid], the melting point lay within 97 to 98 °C. Moreover, in data set [1], the Emax lay in the range of 30 to 86%.

Regarding `CCOc1ccc(CCNC(=O)COc2ccc(C[C@H](OC)C(=O)O)cc2)cc1` [formula V, (S)-3-(4-{[2-(4-ethoxy-phenyl)-ethylcarbamoyl]-methoxy}-phenyl)-2-methoxy-propionic acid], in data set [1], the Emax lay in the range of 39 to 80%.
